SMILES strings stand for the structures. Read-outs that look alike come from different tables or passages of the source.

This is an account of results in US10857247B2, “Compounds and compositions for the detection and treatment of Alzheimer's disease and related disorders” (The General Hospital Corporation, priority 2008, dated 2020).

For data set [1] the following is noted: cited from earlier work.
The nature of data set [2]: Biodistribution of [18F]fluoro-RS 86 in rats. Type of data set: in vivo. How it is done:
As described above, 2-(2-methanesulfonylethyl)-8-methyl-2,8-diazaspiro[4,5]decane-1,3-dione was prepared in five steps. The RS-86 mesylate (2 mg) in acetonitrile (0.1 mL) was added to a sealed vial containing dried K^18F/kryptofix and heated at 120° C. for 10 min. The mixture was diluted with water (0.2 mL) and purified by HPLC (C-18 column 250×10 mm, flow 6 mL/min, PBS/acetonitrile (95:5). The fraction containing [^18F]fluoro-RS 86 was evaporated to dryness and the activity dissolved in PBS before filtering. Biodistribution was performed in rats at 5, 30 and 60 min.

For data set [3] the following is noted: normal mice, iv, cited from earlier work.
The subject of the next data set is brain amyloid deposits. Conditions: APP23 transgenic mice, 180 min after iv injection; cited from earlier work.

As to `CCN1C(=O)CC2(CCN([11CH3])CC2)C1=O` [[^11C]RS-86], the Brain uptake in data set [1] (comparison value for the C-11 labeled analog) is reported as 1%. The Initial brain uptake entry in data set [1] (rats, biodistribution as a function of time) is “about 1.1%”.
The compound `O=C1CC2(CCNCC2)C(=O)N1CC[18F]` [[^18F]fluoro-RS 86, [F-18]-N-2-fluoroethyl-2,8-diazaspiro[4,5]decane-1,3-dione] came in with a Brain uptake in data set [2] (5 min) of 0.27. Moreover, in data set [2] (30 min), the Brain uptake turned out to be 0.54. In data set [2] (60 min), this compound yielded a Brain uptake of 0.48. Besides, in data set [2] (at 30 min), the Blood uptake is 0.3%, the Liver uptake is given as 0.64%, the Stomach uptake amounted to 0.90% and the “Uptake in the kidneys (greatest uptake)” value worked out at 2.5%. Besides, the “Defluorination (uptake in bone)” value in data set [2] (bone at 30 min) stood at 0.42%. Further, the Brain uptake in data set [2] (restated in comparison with [11C]RS-86) is on record as 0.54%.
`CNc1ccc(C=Cc2nc3ccc(OCCF)cc3o2)cc1` [BF-168, 6-(2-fluoroethoxy)-2-[2-(4-methylaminophenyl)ethenyl]-benzoxazole]: in data set [3] (at 2 min after injection), the Initial brain uptake is recorded as 3.9 % injected dose/gm. Besides, the “Clearance t1/2” value in data set [3] (clearance from brain) is 24.7 min. The “Labeling in autoradiograms of brain sections” value in the data set on brain amyloid deposits is on record as “selective labeling of brain amyloid deposits with little non-specific binding”.
